# In US20040147788A1, “Stilbene derivatives and their use as aryl hydrocarbon receptor antagonistic ligands” (priority 2002, published 2004):
# Experiments:
# [1] = molecular target: T1, Estrogen Receptors extracted from MCF-7 cells (Homo sapiens, UniProt P03372); experiment: Ligand binding competition assay (Estrogen Receptor), [3H]Estradiol
# T1 construct: Estrogen Receptors extracted from MCF-7 cells; endogenous in cells; host or cells: MCF-7 (ATCC) cytosol
# T1 sequence (P03372 1-595): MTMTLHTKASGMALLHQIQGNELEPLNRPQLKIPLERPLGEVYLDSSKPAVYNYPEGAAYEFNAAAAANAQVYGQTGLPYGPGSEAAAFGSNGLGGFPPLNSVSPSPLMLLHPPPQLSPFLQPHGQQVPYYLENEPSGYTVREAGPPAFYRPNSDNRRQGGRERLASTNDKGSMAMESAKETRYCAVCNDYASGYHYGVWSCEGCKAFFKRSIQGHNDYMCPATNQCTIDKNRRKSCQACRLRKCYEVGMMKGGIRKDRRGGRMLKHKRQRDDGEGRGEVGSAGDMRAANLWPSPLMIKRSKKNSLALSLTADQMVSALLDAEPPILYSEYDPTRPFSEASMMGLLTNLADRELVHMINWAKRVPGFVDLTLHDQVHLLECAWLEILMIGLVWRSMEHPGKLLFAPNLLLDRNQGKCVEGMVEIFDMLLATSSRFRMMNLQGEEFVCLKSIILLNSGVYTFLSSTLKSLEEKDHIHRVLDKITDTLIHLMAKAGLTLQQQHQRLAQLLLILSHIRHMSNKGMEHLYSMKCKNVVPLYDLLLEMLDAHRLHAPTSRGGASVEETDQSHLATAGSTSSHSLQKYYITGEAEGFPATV
# Procedure: Ligand Binding Competition Assay (Estrogen Receptor)
# ER binding experiments were conducted using Estrogen Receptors extracted from MCF-7 cells as previously described (4). Briefly MCF-7 (from ATCC) were grown to 80% confluency in DMEM medium (GiBCO BRL) suplemented with 10% FCS. Cells were then scraped, and washed twice with PBS. After centrifugation for 10 minutes at 1500 rpm, the cells were resuspended in TM buffer (20 mM Tris, HCl pH 7.4; sodium molybdate, 20 mM). Cells were broken by freeze-thaw lysis of the cell pellets in an equal volume of TM buffer. Cytosolic receptors were prepared by a 105.000 g×60 minutes centrifugation at 0° C., and then stored at −80° C. This cytosolic receptor solution was diluted to 60% in TM buffer, and then incubated with the corresponding ligand for 18 hr at 4° C. in a volume of 100 μl with 50 μg of protein and 2 nM of [3H]Estradiol and two concentrations (1 and 10 μM) of unlabeled test ligand. Assays were terminated by loading 65 μl of the incubate on a 1.2 ml Sephadex TM LH-20 column equilibrated with the TM buffer. The flow through was collected and counted for radioactivity in ready safe scintillant (Beckman).
# AhR = molecular target: T2, AhR (Homo sapiens, UniProt P35869); experiment: AhR-mediated transactivation, DRE-TK-CAT stable cell line 47DRE treated with TCDD; type: cell-based; set-up: endogenous in cells; key to AhR T.A. (transcriptional activity): Ago: agonist; N.M.: not measurable; settings: DRE-TKCAT reporter; for AhR T.A. (transcriptional activity): trans-stilbenes, 10^−9 M TCDD challenged by 10^−7 M compound; for AhR TA (transcriptional activity): cis-stilbenes, 10^−9 M TCDD challenged by 10−7 M compound
# T2 sequence (P35869 11-848): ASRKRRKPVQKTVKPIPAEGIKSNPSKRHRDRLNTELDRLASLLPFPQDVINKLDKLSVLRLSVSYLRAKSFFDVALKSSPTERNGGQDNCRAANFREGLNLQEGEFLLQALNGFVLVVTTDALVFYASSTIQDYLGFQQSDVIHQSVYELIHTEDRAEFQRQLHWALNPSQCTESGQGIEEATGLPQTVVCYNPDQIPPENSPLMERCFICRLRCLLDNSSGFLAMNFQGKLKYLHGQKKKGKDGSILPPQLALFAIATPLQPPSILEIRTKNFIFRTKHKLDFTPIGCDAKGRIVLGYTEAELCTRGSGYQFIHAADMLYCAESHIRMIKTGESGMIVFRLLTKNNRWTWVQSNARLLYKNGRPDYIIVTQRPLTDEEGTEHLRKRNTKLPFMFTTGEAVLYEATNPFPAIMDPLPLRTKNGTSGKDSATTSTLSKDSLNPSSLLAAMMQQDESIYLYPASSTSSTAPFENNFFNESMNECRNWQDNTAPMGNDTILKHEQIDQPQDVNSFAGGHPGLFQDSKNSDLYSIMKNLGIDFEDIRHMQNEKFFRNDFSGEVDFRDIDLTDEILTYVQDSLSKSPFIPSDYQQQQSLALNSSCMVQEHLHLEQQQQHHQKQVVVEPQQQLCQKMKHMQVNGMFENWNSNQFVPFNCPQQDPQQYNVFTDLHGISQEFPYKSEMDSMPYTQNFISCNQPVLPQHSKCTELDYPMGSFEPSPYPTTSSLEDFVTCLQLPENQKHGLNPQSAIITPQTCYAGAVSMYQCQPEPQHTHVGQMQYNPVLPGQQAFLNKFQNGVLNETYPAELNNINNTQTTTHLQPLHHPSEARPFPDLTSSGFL
# Procedure: Cis and Trans isomers were then tested for transcriptional modulatory activity in a DRE-TK-CAT containing stable cell line treated with TCDD.
# mp° C.: melting point. Ago: agonist. N.M.: not measurable. RBA: relative binding affinity of the compound for the given receptor (AhR or ER).
# The stable cell line 47DRE bearing the TCDD-responsive CAT construct was previously described (3). It was routinely grown in DMEM medium supplemented with 10% fetal calf serum (FCS), 4.5 g/L glucose, and 0.6 units/ml (10^−6 M) insulin. Unless stated otherwise, cells were established 24 hours before any experiment in a modified medium (stripped condition) containing 5% Dextran-charcoal-treated newbom calf serum instead of 10% FCS. All other components remained unchanged. […] All chemicals applied to the cells were diluted in ethanol, control cells received ethanol alone. CAT expression was assayed on whole cell extracts (100 μg protein) with a CAT-ELISA assay (Roche, Meylan, France) according to supplier's specifications. Experiments were done in triplicate.
ER RBA (relative binding affinity) ([1]; trans-stilbenes),AhR T.A. (transcriptional activity) (AhR),ER RBA (relative binding affinity) ([1]; cis-stilbenes),AhR TA (transcriptional activity) (AhR),affinity for ER [1],SMILES
–,–,N.M,Ant,–,"COc1ccc(/C=C\c2cc(Cl)cc(Cl)c2)cc1 [Compound 5j, (Z)-1-(4-methoxyphenyl)-2-(3,5-dichlorophenyl)-ethene]"
N.M,Ant,–,–,–,"CCOc1ccc(/C=C/c2cc(OC)cc(OC)c2)cc1 [Compound 4g, (E)-1-(4-ethoxyphenyl)-2-(3,5-dimethoxyphenyl)-ethene]"
–,–,N.M,Ant,–,"FC(F)(F)c1ccc(/C=C\c2cc(Cl)cc(Cl)c2)cc1 [Compound 5i, (Z)-1-(4-trifluoromethylphenyl)-2-(3,5-dichlorophenyl)-ethene]"
N.M,Ant,–,–,–,"Fc1ccc(/C=C/c2cc(F)cc(F)c2)cc1 [Compound 4d, (E)-1-(4-fluorophenyl)-2-(3,5-difluorophenyl)-ethene]"
–,–,N.M,Ant,–,"COc1cc(/C=C\c2ccc(F)cc2)cc(OC)c1 [Compound 5f, (Z)-1-(4-fluorophenyl)-2-(3,5-dimethoxyphenyl)-ethene]"
–,–,N.M,Ant,–,"FC(F)(F)c1ccc(/C=C\c2cc(C(F)(F)F)cc(C(F)(F)F)c2)cc1 [Compound 5e, (Z)-1-(4-trifluoromethylphenyl)-2-(3,5-ditrifluoromethylphenyl)-ethene]"
N.M,Ant,–,–,without detectable affinity,"FC(F)(F)c1ccc(/C=C/c2cc(C(F)(F)F)cc(C(F)(F)F)c2)cc1 [Compound 4e, (E)-1-(4-trifluoromethylphenyl)-2-(3,5-ditrifluoromethylphenyl)-ethene]"
N.M,Ant,–,–,without detectable affinity,"COc1ccc(/C=C/c2cc(Cl)cc(Cl)c2)cc1 [Compound 4j, (E)-1-(4-methoxyphenyl)-2-(3,5-dichlorophenyl)-ethene]"
–,–,N.M,Ant,–,"CCOc1ccc(/C=C\c2cc(OC)cc(OC)c2)cc1 [Compound 5g, (Z)-1-(4-ethoxyphenyl)-2-(3,5-dimethoxyphenyl)-ethene]"
–,–,N.M,Ant,–,"Fc1ccc(/C=C\c2cc(F)cc(F)c2)cc1 [Compound 5d, (Z)-1-(4-fluorophenyl)-2-(3,5-difluorophenyl)-ethene]"
N.M,Ant,–,–,–,"COc1ccc(/C=C/c2cc(F)cc(F)c2)cc1 [Compound 4c, (E)-1-(4-methoxyphenyl)-2-(3,5-difluorophenyl)-ethene]"
–,–,N.M,Ant,–,"COc1ccc(/C=C\c2cc(F)cc(F)c2)cc1 [Compound 5c, (Z)-1-(4-methoxyphenyl)-2-(3,5-difluorophenyl)-ethene]"
N.M,Ago,–,–,–,"FC(F)(F)c1ccc(/C=C/c2cc(Cl)cc(Cl)c2)cc1 [Compound 4i, (E)-1-(4-trifluoromethylphenyl)-2-(3,5-dichlorophenyl)-ethene]"
N.M,Ant,–,–,–,"COc1cc(/C=C/c2ccc(F)cc2)cc(OC)c1 [Compound 4f, (E)-1-(4-fluorophenyl)-2-(3,5-dimethoxyphenyl)-ethene]"

SMILES,ER RBA (relative binding affinity) ([1]; trans-stilbenes),AhR T.A. (transcriptional activity) (AhR),ER RBA (relative binding affinity) ([1]; cis-stilbenes),AhR TA (transcriptional activity) (AhR),affinity for ER [1]
"CCCCOc1ccc(/C=C/c2cc(OC)cc(OC)c2)cc1 [Compound 4h, (E)-1-(4-butoxyphenyl)-2-(3,5-dimethoxyphenyl)-ethene]",N.M,Ant,–,–,–
"CCCCOc1ccc(/C=C\c2cc(OC)cc(OC)c2)cc1 [Compound 5h, (Z)-1-(4-butoxyphenyl)-2-(3,5-dimethoxyphenyl)-ethene]",–,–,N.M,Ant,–
"Clc1ccc(/C=C/c2cc(Cl)cc(Cl)c2)cc1 [Compound 4b, (E)-1-(4-chlorophenyl)-2-(3,5-dichlorophenyl)-ethene]",N.M,Ant,–,–,without detectable affinity
"Clc1ccc(/C=C\c2cc(Cl)cc(Cl)c2)cc1 [Compound 5b, (Z)-1-(4-chlorophenyl)-2-(3,5-dichlorophenyl)-ethene]",–,–,N.M,Ant,–
"COc1ccc(/C=C/c2cc(OC)cc(OC)c2)cc1 [Compound 4a, (E)-1-(4-methoxyphenyl)-2-(3,5-dimethoxyphenyl)-ethene]",0.03,Ant,–,–,–
"COc1ccc(/C=C\c2cc(OC)cc(OC)c2)cc1 [Compound 5a, (Z)-1-(4-methoxyphenyl)-2-(3,5-dimethoxyphenyl)-ethene]",–,–,0.06,Ant,–
